Consider one molecule from article PMC4036227 (Journal of medicinal chemistry, 2013).

This test concerns the target WT (S31) M2 proton channel (full length AM2 protein) (Influenza A virus, UniProt P0DOF5). The test is described as follows: biochemical. Conditions: read-out: WT % inhibition (TEVC).

WT (S31) M2 proton channel (full length AM2 protein), sequence (P0DOF5 whole entry): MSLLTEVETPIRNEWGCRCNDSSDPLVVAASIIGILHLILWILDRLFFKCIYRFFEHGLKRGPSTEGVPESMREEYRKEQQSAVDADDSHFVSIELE

As for `COC(=O)[C@H](Cc1cnc[nH]1)NCC12CC3CC(CC(C3)C1)C2` [Compound 3], the inhibition (commonly the relative decrease from the control value, in per cent) at 100 µM worked out at 21%.
